Assay results as given in PubChem BioAssay (NCI).
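A five-concentration, 48-hour dose response in 96-well plates underlies each endpoint, interpolated linearly between surrounding concentrations. At the TGI there is no net growth.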

Tests used:
Assay in all cases: inhibition of tumour cell growth, NCI panel, 48 h
786-0 renal = tested on: 786-0 renal
A498 renal = tested on: A498 renal
A549 NSCLC = tested on: A549 NSCLC
ACHN renal = tested on: ACHN renal
BT-549 breast = tested on: BT-549 breast
CAKI-1 renal = tested on: CAKI-1 renal
COLO 205 colon = tested on: COLO 205 colon
DU-145 prostate = tested on: DU-145 prostate
EKVX NSCLC = tested on: EKVX NSCLC
HCC-2998 colon = tested on: HCC-2998 colon
HCT-116 colon = tested on: HCT-116 colon
HCT-15 colon = tested on: HCT-15 colon
HL-60(TB) leukemia = tested on: HL-60(TB) leukemia
HOP-62 NSCLC = tested on: HOP-62 NSCLC
HOP-92 NSCLC = tested on: HOP-92 NSCLC
HS 578T breast = tested on: HS 578T breast
HT29 colon = tested on: HT29 colon
IGROV1 ovarian = tested on: IGROV1 ovarian
K-562 leukemia = tested on: K-562 leukemia
KM12 colon = tested on: KM12 colon
LOX IMVI melanoma = tested on: LOX IMVI melanoma
M14 melanoma = tested on: M14 melanoma
MALME-3M melanoma = tested on: MALME-3M melanoma
MCF7 breast = tested on: MCF7 breast
MDA-MB-231 breast = tested on: MDA-MB-231 breast
MDA-MB-435 = tested on: MDA-MB-435
MDA-N = tested on: MDA-N
MOLT-4 leukemia = tested on: MOLT-4 leukemia
NCI-H226 lung = tested on: NCI-H226 lung
NCI-H23 lung = tested on: NCI-H23 lung
NCI-H460 lung = tested on: NCI-H460 lung
NCI-H522 lung = tested on: NCI-H522 lung
NCI/ADR-RES ovarian = tested on: NCI/ADR-RES ovarian
OVCAR-3 ovarian = tested on: OVCAR-3 ovarian
OVCAR-4 ovarian = tested on: OVCAR-4 ovarian
OVCAR-5 ovarian = tested on: OVCAR-5 ovarian
OVCAR-8 ovarian = tested on: OVCAR-8 ovarian
PC-3 prostate = tested on: PC-3 prostate
RPMI-8226 leukemia = tested on: RPMI-8226 leukemia
SF-268 CNS = tested on: SF-268 CNS
SF-295 CNS = tested on: SF-295 CNS
SF-539 CNS = tested on: SF-539 CNS
SK-MEL-2 melanoma = tested on: SK-MEL-2 melanoma
SK-MEL-28 melanoma = tested on: SK-MEL-28 melanoma
SK-MEL-5 melanoma = tested on: SK-MEL-5 melanoma
SK-OV-3 ovarian = tested on: SK-OV-3 ovarian
SN12C renal = tested on: SN12C renal
SNB-19 CNS = tested on: SNB-19 CNS
SNB-75 CNS = tested on: SNB-75 CNS
SR leukemia = tested on: SR leukemia
SW-620 colon = tested on: SW-620 colon
T-47D breast = tested on: T-47D breast
U251 CNS = tested on: U251 CNS
UACC-257 melanoma = tested on: UACC-257 melanoma
UO-31 renal = tested on: UO-31 renal
RXF 393 renal = tested on: RXF 393 renal
TK-10 renal = tested on: TK-10 renal
UACC-62 melanoma = tested on: UACC-62 melanoma
CCRF-CEM leukemia = tested on: CCRF-CEM leukemia

## C/C(=N\NC(=S)Nc1ccccc1)c1nc2ncccc2[nH]1
786-0 renal
  TGI: 74 µM
A498 renal
  TGI: 33.1 µM
A549 NSCLC
  TGI: > 100 µM
ACHN renal
  TGI: 47.8 µM
BT-549 breast
  TGI: 26.2 µM
CAKI-1 renal
  TGI: > 100 µM
COLO 205 colon
  TGI: > 100 µM
DU-145 prostate
  TGI: 18.2 µM
EKVX NSCLC
  TGI: 6.12 µM
HCC-2998 colon
  TGI: 20.5 µM
HCT-116 colon
  TGI: 14 µM
HCT-15 colon
  TGI: 19.8 µM
HL-60(TB) leukemia
  TGI: > 100 µM
HOP-62 NSCLC
  TGI: 59 µM
HOP-92 NSCLC
  TGI: > 100 µM
HS 578T breast
  TGI: 77.7 µM
HT29 colon
  TGI: 18.8 µM
IGROV1 ovarian
  TGI: 24.2 µM
K-562 leukemia
  TGI: 60.8 µM
KM12 colon
  TGI: > 100 µM
LOX IMVI melanoma
  TGI: 15.8 µM
M14 melanoma
  TGI: > 100 µM
MALME-3M melanoma
  TGI: 57.7 µM
MCF7 breast
  TGI: 20.3 µM
MDA-MB-231 breast
  TGI: 55.5 µM
MDA-MB-435
  TGI: 60.3 µM
MDA-N
  TGI: > 100 µM
MOLT-4 leukemia
  TGI: 16.8 µM
NCI-H226 lung
  TGI: 13.2 µM
NCI-H23 lung
  TGI: 48.7 µM
NCI-H460 lung
  TGI: 13.8 µM
NCI-H522 lung
  TGI: 17.1 µM
NCI/ADR-RES ovarian
  TGI: 22 µM
OVCAR-3 ovarian
  TGI: 17.1 µM
OVCAR-4 ovarian
  TGI: 47.4 µM
OVCAR-5 ovarian
  TGI: 61 µM
OVCAR-8 ovarian
  TGI: 16 µM
PC-3 prostate
  TGI: > 100 µM
RPMI-8226 leukemia
  TGI: 84.4 µM
SF-268 CNS
  TGI: 39 µM
SF-295 CNS
  TGI: 18.3 µM
SF-539 CNS
  TGI: 6.8 µM
SK-MEL-2 melanoma
  TGI: 47 µM
SK-MEL-28 melanoma
  TGI: 6.79 µM
SK-MEL-5 melanoma
  TGI: 15 µM
SK-OV-3 ovarian
  TGI: > 100 µM
SN12C renal
  TGI: 36.3 µM
SNB-19 CNS
  TGI: 60.1 µM
SNB-75 CNS
  TGI: 79.2 µM
SR leukemia
  TGI: > 100 µM
SW-620 colon
  TGI: > 100 µM
T-47D breast
  TGI: 24 µM
U251 CNS
  TGI: 16.9 µM
UACC-257 melanoma
  TGI: 11.1 µM
UO-31 renal
  TGI: 7.47 µM

## COc1cc(C)c2c(c1C=O)Oc1c(c(C)c(O)c3c1C(O)OC3=O)OC2=O (configuration not stated)
786-0 renal
  TGI: > 100 µM
A498 renal
  TGI: > 100 µM
A549 NSCLC
  TGI: > 100 µM
ACHN renal
  TGI: > 100 µM
BT-549 breast
  TGI: > 100 µM
CAKI-1 renal
  TGI: > 100 µM
COLO 205 colon
  TGI: > 100 µM
DU-145 prostate
  TGI: > 100 µM
EKVX NSCLC
  TGI: > 100 µM
HCC-2998 colon
  TGI: 44.5 µM
HCT-116 colon
  TGI: > 100 µM
HCT-15 colon
  TGI: 46.4 µM
HL-60(TB) leukemia
  TGI: 48.4 µM
HOP-62 NSCLC
  TGI: > 100 µM
HOP-92 NSCLC
  TGI: > 100 µM
HS 578T breast
  TGI: > 100 µM
HT29 colon
  TGI: > 100 µM
IGROV1 ovarian
  TGI: 60.9 µM
KM12 colon
  TGI: 52.3 µM
LOX IMVI melanoma
  TGI: > 100 µM
M14 melanoma
  TGI: > 100 µM
MALME-3M melanoma
  TGI: 52.6 µM
MCF7 breast
  TGI: 74 µM
MDA-MB-231 breast
  TGI: 68.3 µM
MDA-MB-435
  TGI: > 100 µM
MDA-N
  TGI: 43.8 µM
MOLT-4 leukemia
  TGI: 49.5 µM
NCI-H226 lung
  TGI: > 100 µM
NCI-H23 lung
  TGI: 95 µM
NCI-H522 lung
  TGI: 83.8 µM
NCI/ADR-RES ovarian
  TGI: > 100 µM
OVCAR-3 ovarian
  TGI: > 100 µM
OVCAR-4 ovarian
  TGI: > 100 µM
OVCAR-5 ovarian
  TGI: > 100 µM
OVCAR-8 ovarian
  TGI: > 100 µM
PC-3 prostate
  TGI: > 100 µM
RPMI-8226 leukemia
  TGI: 49.6 µM
RXF 393 renal
  TGI: 96.7 µM
SF-268 CNS
  TGI: 68 µM
SF-295 CNS
  TGI: > 100 µM
SF-539 CNS
  TGI: > 100 µM
SK-MEL-28 melanoma
  TGI: > 100 µM
SK-MEL-5 melanoma
  TGI: 61.5 µM
SK-OV-3 ovarian
  TGI: > 100 µM
SN12C renal
  TGI: > 100 µM
SNB-19 CNS
  TGI: 60.4 µM
SNB-75 CNS
  TGI: > 100 µM
SR leukemia
  TGI: 60.9 µM
SW-620 colon
  TGI: > 100 µM
T-47D breast
  TGI: 65.1 µM
TK-10 renal
  TGI: > 100 µM
U251 CNS
  TGI: > 100 µM
UACC-257 melanoma
  TGI: > 100 µM
UACC-62 melanoma
  TGI: 81.7 µM
UO-31 renal
  TGI: > 100 µM

## c1cc(-c2ccc(-c3ccc(C4=NCCCN4)cc3)o2)ccc1C1=NCCCN1
786-0 renal
  TGI: > 100 µM
A498 renal
  TGI: 13.4 µM
A549 NSCLC
  TGI: > 100 µM
ACHN renal
  TGI: > 100 µM
BT-549 breast
  TGI: > 100 µM
CAKI-1 renal
  TGI: > 100 µM
CCRF-CEM leukemia
  TGI: > 100 µM
COLO 205 colon
  TGI: > 100 µM
DU-145 prostate
  TGI: > 100 µM
EKVX NSCLC
  TGI: > 100 µM
HCC-2998 colon
  TGI: > 100 µM
HCT-116 colon
  TGI: > 100 µM
HCT-15 colon
  TGI: > 100 µM
HL-60(TB) leukemia
  TGI: > 100 µM
HOP-62 NSCLC
  TGI: > 100 µM
HOP-92 NSCLC
  TGI: > 100 µM
HS 578T breast
  TGI: > 100 µM
HT29 colon
  TGI: > 100 µM
K-562 leukemia
  TGI: > 100 µM
KM12 colon
  TGI: > 100 µM
LOX IMVI melanoma
  TGI: > 100 µM
M14 melanoma
  TGI: > 100 µM
MALME-3M melanoma
  TGI: > 100 µM
MCF7 breast
  TGI: > 100 µM
MDA-MB-231 breast
  TGI: > 100 µM
MDA-MB-435
  TGI: > 100 µM
MDA-N
  TGI: > 100 µM
MOLT-4 leukemia
  TGI: > 100 µM
NCI-H226 lung
  TGI: > 100 µM
NCI-H23 lung
  TGI: > 100 µM
NCI-H460 lung
  TGI: > 100 µM
NCI-H522 lung
  TGI: > 100 µM
NCI/ADR-RES ovarian
  TGI: > 100 µM
OVCAR-3 ovarian
  TGI: > 100 µM
OVCAR-4 ovarian
  TGI: > 100 µM
OVCAR-5 ovarian
  TGI: > 100 µM
OVCAR-8 ovarian
  TGI: > 100 µM
PC-3 prostate
  TGI: > 100 µM
RXF 393 renal
  TGI: > 100 µM
SF-268 CNS
  TGI: > 100 µM
SF-295 CNS
  TGI: > 100 µM
SF-539 CNS
  TGI: > 100 µM
SK-MEL-2 melanoma
  TGI: > 100 µM
SK-MEL-28 melanoma
  TGI: > 100 µM
SK-MEL-5 melanoma
  TGI: > 100 µM
SK-OV-3 ovarian
  TGI: > 100 µM
SN12C renal
  TGI: 95.7 µM
SNB-19 CNS
  TGI: > 100 µM
SNB-75 CNS
  TGI: > 100 µM
SR leukemia
  TGI: > 100 µM
SW-620 colon
  TGI: > 100 µM
T-47D breast
  TGI: > 100 µM
TK-10 renal
  TGI: > 100 µM
U251 CNS
  TGI: > 100 µM
UACC-257 melanoma
  TGI: > 100 µM
UACC-62 melanoma
  TGI: > 100 µM
UO-31 renal
  TGI: > 100 µM
